According to PubChem BioAssay AID1259407 (Chemical Carcinogenesis Research Information System (CCRIS), 2018):
The source made the active and inactive calls. No rule for the calls is given here.

Tested on: CCRIS mutagenicity, Ames/micronucleus/aberration tests
Assay: CCRIS mutagenicity studies
Settings: Test System: AMES SALMONELLA TYPHIMURIUM
[1] = Strain/Indicator: TA97, Metabolic Activation: HAMSTER, LIVER, S-9, AROCLOR 1254 (10%), Method: PREINCUBATION
[2] = Strain/Indicator: TA97, Metabolic Activation: NONE, Method: PREINCUBATION
[3] = Strain/Indicator: TA98, Metabolic Activation: HAMSTER, LIVER, S-9, AROCLOR 1254 (10%), Method: PREINCUBATION
[4] = Strain/Indicator: TA98, Metabolic Activation: NONE, Method: PREINCUBATION
[5] = Strain/Indicator: TA98, Metabolic Activation: RAT, LIVER, S-9, AROCLOR 1254 (10%), Method: PREINCUBATION
[6] = Strain/Indicator: TA100, Metabolic Activation: HAMSTER, LIVER, S-9, AROCLOR 1254 (10%), Method: PREINCUBATION
[7] = Strain/Indicator: TA100, Metabolic Activation: NONE, Method: PREINCUBATION
[8] = Strain/Indicator: TA100, Metabolic Activation: RAT, LIVER, S-9, AROCLOR 1254 (10%), Method: PREINCUBATION
[9] = Strain/Indicator: TA1535, Metabolic Activation: HAMSTER, LIVER, S-9, AROCLOR 1254 (10%), Method: PREINCUBATION
[10] = Strain/Indicator: TA1535, Metabolic Activation: NONE, Method: PREINCUBATION
[11] = Strain/Indicator: TA1535, Metabolic Activation: RAT, LIVER, S-9, AROCLOR 1254 (10%), Method: PREINCUBATION

## CCCCC(CC)COCCCN (centres undefined)
[1]
  mutagenic call: inactive; negative
Strain/Indicator: TA97, Metabolic Activation: HAMSTER, LIVER, S-9, AROCLOR 1254 (30%), Method: PREINCUBATION
  mutagenic call: inactive; negative
[2]
  mutagenic call: inactive; negative
Strain/Indicator: TA97, Metabolic Activation: RAT, LIVER, S-9, AROCLOR 1254 (10%), Method: PREINCUBATION
  mutagenic call: inactive; negative
Strain/Indicator: TA97, Metabolic Activation: RAT, LIVER, S-9, AROCLOR 1254 (30%), Method: PREINCUBATION
  mutagenic call: inactive; negative
[3]
  mutagenic call: inactive; negative
Strain/Indicator: TA98, Metabolic Activation: HAMSTER, LIVER, S-9, AROCLOR 1254 (30%), Method: PREINCUBATION
  mutagenic call: inactive; negative
[4]
  mutagenic call: inactive; negative
[5]
  mutagenic call: inactive; negative
Strain/Indicator: TA98, Metabolic Activation: RAT, LIVER, S-9, AROCLOR 1254 (30%), Method: PREINCUBATION
  mutagenic call: inactive; negative
[6]
  mutagenic call: inactive; negative
Strain/Indicator: TA100, Metabolic Activation: HAMSTER, LIVER, S-9, AROCLOR 1254 (30%), Method: PREINCUBATION
  mutagenic call: inactive; negative
[7]
  mutagenic call: inactive; negative
[8]
  mutagenic call: inactive; negative
Strain/Indicator: TA100, Metabolic Activation: RAT, LIVER, S-9, AROCLOR 1254 (30%), Method: PREINCUBATION
  mutagenic call: inactive; negative
[9]
  mutagenic call: inactive; negative
Strain/Indicator: TA1535, Metabolic Activation: HAMSTER, LIVER, S-9, AROCLOR 1254 (30%), Method: PREINCUBATION
  mutagenic call: inactive; negative
[10]
  mutagenic call: inactive; negative
[11]
  mutagenic call: inactive; negative
Strain/Indicator: TA1535, Metabolic Activation: RAT, LIVER, S-9, AROCLOR 1254 (30%), Method: PREINCUBATION
  mutagenic call: inactive; negative

## Nc1ccc2c(=O)[nH]sc2c1
Strain/Indicator: TA98, Metabolic Activation: NONE, Method: STANDARD PLATE
  mutagenic call: inactive; negative
Strain/Indicator: TA98, Metabolic Activation: S-9, Method: STANDARD PLATE
  mutagenic call: inactive; negative
Strain/Indicator: TA100, Metabolic Activation: NONE, Method: STANDARD PLATE
  mutagenic call: inactive; negative
Strain/Indicator: TA100, Metabolic Activation: S-9, Method: STANDARD PLATE
  mutagenic call: inactive; negative
Strain/Indicator: TA1535, Metabolic Activation: NONE, Method: STANDARD PLATE
  mutagenic call: inactive; negative
Strain/Indicator: TA1535, Metabolic Activation: S-9, Method: STANDARD PLATE
  mutagenic call: inactive; negative
Strain/Indicator: TA1537, Metabolic Activation: NONE, Method: STANDARD PLATE
  mutagenic call: inactive; negative
Strain/Indicator: TA1537, Metabolic Activation: S-9, Method: STANDARD PLATE
  mutagenic call: inactive; negative

## Nc1ccc([N+](=O)[O-])c(N)c1
[1]
  mutagenic call: inactive; negative
[2]
  mutagenic call: inactive; negative
Strain/Indicator: TA97, Metabolic Activation: RAT, LIVER, S-9, AROCLOR 1254 (5, 10 OR 30%), Method: PREINCUBATION
  mutagenic call: inactive; negative
[3]
  mutagenic call: active; positive
[4]
  mutagenic call: active; positive
[5]
  mutagenic call: active; positive
[6]
  mutagenic call: inactive; negative
[7]
  mutagenic call: inactive; negative
[8]
  mutagenic call: inactive; negative
[9]
  mutagenic call: inactive; negative
[10]
  mutagenic call: inactive; negative
[11]
  mutagenic call: inactive; negative
Strain/Indicator: TA1537, Metabolic Activation: HAMSTER, LIVER, S-9, AROCLOR 1254 (10%), Method: PREINCUBATION
  mutagenic call: active; positive
Strain/Indicator: TA1537, Metabolic Activation: NONE, Method: PREINCUBATION
  mutagenic call: inactive; negative
Strain/Indicator: TA1537, Metabolic Activation: RAT, LIVER, S-9, AROCLOR 1254 (10%), Method: PREINCUBATION
  mutagenic call: inactive; negative

## O=C1c2ccccc2-c2c1ccc1ccccc21
Strain/Indicator: TA100, Metabolic Activation: RAT, LIVER, S-9, AROCLOR 1254, Method: STANDARD PLATE
  mutagenic call: active; positive

## CCOC(=O)Nc1cccc2c1CN(C)CC2c1ccc(Cl)cc1 (centres undefined)
Strain/Indicator: TA98, Metabolic Activation: NONE
  mutagenic call: inactive; negative
Strain/Indicator: TA98, Metabolic Activation: S-9
  mutagenic call: inactive; negative
Strain/Indicator: TA100, Metabolic Activation: NONE
  mutagenic call: inactive; negative
Strain/Indicator: TA100, Metabolic Activation: S-9
  mutagenic call: inactive; negative
Strain/Indicator: TA1535, Metabolic Activation: NONE
  mutagenic call: inactive; negative
Strain/Indicator: TA1535, Metabolic Activation: S-9
  mutagenic call: inactive; negative
Strain/Indicator: TA1537, Metabolic Activation: NONE
  mutagenic call: inactive; negative
Strain/Indicator: TA1537, Metabolic Activation: S-9
  mutagenic call: inactive; negative
Strain/Indicator: TA1538, Metabolic Activation: NONE
  mutagenic call: inactive; negative
Strain/Indicator: TA1538, Metabolic Activation: S-9
  mutagenic call: inactive; negative
